Patent US11001615B2, “Mutated tau protein fragment and use thereof” (ADEL INC., priority 2016, dated 2021)
Square brackets hold non-standard residues; d marks the D form. Ends that are not written are not given here. pT = C[C@@H](OP(=O)(O)O)[C@H](N)C(=O)O

Tests used:
[1] = system: Tau-P301L dementia mice; assay: ELISA using plasma: antibody production against modified tau protein fragments; type: in vivo; conditions: ELISA using plasma after final administration; fragment with KLH and aluminum adjuvant, IP
Description: (§1) JNPL3 mice expressing Tau-P301L mutant gene were purchased from Taconic, and back-crossed with C57bl/6 mice for five generations in the experimental animal room of the Asan Institute for Life Sciences. Then, the mice were raised under a specific pathogen free (SPE) condition. For active immunization, the mice were administered, for six months starting from three months after birth at intervals of two weeks, two weeks, four weeks, four weeks, five weeks, four weeks, and one week in this order, the four modified tau protein fragments prepared in Preparation Example 1 together with keyhole limpet hemocyanin (KLH) as a carrier and an aluminum adjuvant. At this time, administration was carried out through intraperitoneal injection (IP injection). The dementia mice which were actively immunized by administration of the K280-ac fragment were designated as Tau-P301L-K280-ac.
In order to identify whether antibodies against the four modified tau protein fragments prepared in Preparation Example 1 were produced, the respective modified tau protein fragments or the full-length tau protein was finally administered, and then ELISA was performed using plasma.

[2] = system: Tau-P301L dementia mice; assay: Water maze test; type: in vivo; conditions: 5th day, platform removed; ranking after K280-ac
Description: as §1
An underwater maze test was performed to evaluate a learning and memory ability of the mice. […] Specifically, the underwater maze test took a total of 5 days. The mice were trained for 4 days in a state where a platform and a visual cue for the platform location are placed.
The learning was conducted by filling a swimming pool (1.4 m in diameter, 45 cm in depth) having a platform with water (29±0.5° C.) to a depth of about 26.5 cm, and then 1.5 L of whole milk powder was added to make water cloudy so that the mice can remember the platform with the cue only. Then, the mice were adapted to freely swim for 60 seconds and allowed to rest on the platform for 1 minute. The experiment was performed over a total of 12 times with 4 sets at three different starting positions. At the end of each test, 30 seconds of break time was given. At the end of one set, 30 to 45 minutes of break time was given.
After 4 days of learning, the test was performed on the 5th day. In the experiment for evaluation, the platform was not placed, and the number of staying in the area where the platform has been placed was measured in order to identify whether the mice visit well the platform location using the cue only. The test time was set for the mice to arrive at the location where the platform had been placed within one minute. If the mice fail to arrive at the platform location within one minute, the mice were removed out of the swimming pool.

| Substance | antibodies against the fragment produced [1] | number of arrivals, ranking among fragments [2] |
| --- | --- | --- |
| Glu391: protein fragment having the 381st to 391st amino acid sequence section of the tau protein in which the C-terminus of the 391st amino acid is truncated (NAKAKTDHGAE) | well produced | next highest increased number of arrivals |
| VQIVYK-ac: protein fragment having the 303rd to 316th amino acid sequence section of the tau protein in which the 306th to 311th amino acids are acetylated (GGSVQIVYKPVDLS; also: residues 306-311 (VQIVYK) acetylated; listed as Homo sapiens) | not well produced | next highest increased number of arrivals |
| pT231: protein fragment having the 226th to 236th amino acid sequence section of the tau protein in which the 231st amino acid is phosphorylated (VAVVR[pT]PPKSP) | well produced | lowest number of times to arrive at the platform |
